Experimental data as given in ChEMBL document CHEMBL3885881, “DrugMatrix”.
Starred links: 1 amine or outer side, 2 acyl side, 3 side chain; linkers in the order of their positions; H or OH if unused. Positions of bridges follow the written chain, without caps; N, C: chain ends. Non-standard residues stand in square brackets, D forms with d. Residues, ends and D or L forms follow the SMILES beside them. Chains are numbered I, II in the order given. Actinocin(9to1) = Cc1c2oc3c(C)ccc(C(=O)[*:1])c3nc-2c(C(=O)[*:2])c(N)c1=O; NMeV = CN[C@H](C(=O)O)C(C)C; Sar = CNCC(=O)O

Species: Rattus norvegicus
Experiment: DrugMatrix - Regimen: Daily Repeat
Format: toxicity, organism-based, Sprague-Dawley
Design: regimen Daily Repeat, gender Male, age 6-8 weeks
Conditions: in vivo, iv, vehicle 100 % SALINE; for ABSOLUTE BASOPHIL / ABSOLUTE EOSINOPHIL / ABSOLUTE LYMPHOCYTE / ABSOLUTE MONOCYTE / ABSOLUTE SEGMENTED NEUTROPHIL / BASOPHIL / EOSINOPHIL / ERYTHROCYTE COUNT / HEMATOCRIT / HEMOGLOBIN / LEUKOCYTE COUNT / LYMPHOCYTE / MEAN CORPUSCULAR HEMOGLOBIN / MEAN CORPUSCULAR HEMOGLOBIN CONCENTRATION / MEAN CORPUSCULAR VOLUME / MONOCYTE / NEUTROPHIL / NUCLEATED RED BLOOD CELLS / PLATELET COUNT: tissue Blood; for ALANINE AMINOTRANSFERASE / ALBUMIN / ALKALINE PHOSPHATASE / ASPARTATE AMINOTRANSFERASE / BLOOD UREA NITROGEN / CARBON DIOXIDE / CHLORIDE / CHOLESTEROL / CREATINE PHOSPHOKINASE / CREATININE / GLUCOSE / LACTATE DEHYDROGENASE / LIPASE / PHOSPHORUS / POTASSIUM / SODIUM / TOTAL BILIRUBIN / TOTAL PROTEIN / URIC ACID: tissue Plasma
[1] = 0.006 mg/kg, 120 h, dose level Low, time 5 day
[2] = 0.06 mg/kg, 72 h, dose level High, time 3 day
[3] = 0.06 mg/kg, 120 h, dose level High, time 5 day

## Cc1c2oc3c(C)ccc(C(=O)N[C@@H]4C(=O)N[C@H](C(C)C)C(=O)N5CCC[C@H]5C(=O)N(C)CC(=O)N(C)[C@@H](C(C)C)C(=O)O[C@@H]4C)c3nc-2c(C(=O)N[C@@H]2C(=O)N[C@H](C(C)C)C(=O)N3CCC[C@H]3C(=O)N(C)CC(=O)N(C)[C@@H](C(C)C)C(=O)O[C@@H]2C)c(N)c1=O [DACTINOMYCIN] (I: T[dV]P[Sar][NMeV] / II: T[dV]P[Sar][NMeV]; ester I:1-I:C, II:1-II:C; linker I:N-II:N via Actinocin(9to1))
[1]
  ABSOLUTE BASOPHIL: 0 CELLS/uL
  ABSOLUTE EOSINOPHIL: 221.33 CELLS/uL
  ABSOLUTE LYMPHOCYTE: 12705.67 CELLS/uL
  ABSOLUTE MONOCYTE: 103.33 CELLS/uL
  ABSOLUTE SEGMENTED NEUTROPHIL: 1369.67 CELLS/uL
  BASOPHIL: 0%
  EOSINOPHIL: 1.33%
  ERYTHROCYTE COUNT: 5.39 x10E6/uL
  HEMATOCRIT: 33.7%
  HEMOGLOBIN: 13.67 G/DL
  LEUKOCYTE COUNT: 14.4 x10E3/uL
  LYMPHOCYTE: 88.67%
  MEAN CORPUSCULAR HEMOGLOBIN: 25.37 pg
  MEAN CORPUSCULAR HEMOGLOBIN CONCENTRATION: 40.57 G/DL
  MEAN CORPUSCULAR VOLUME: 62.57 fL
  MONOCYTE: 0.67%
  NEUTROPHIL: 9.33%
  NUCLEATED RED BLOOD CELLS: 0 /100WBC
  PLATELET COUNT: 1209 x10E3/uL
  ALANINE AMINOTRANSFERASE: 51 u/L
  ALBUMIN: 4.1 G/DL
  ALKALINE PHOSPHATASE: 297 u/L
  ASPARTATE AMINOTRANSFERASE: 130.67 u/L
  BLOOD UREA NITROGEN: 15 mg/dL
  CARBON DIOXIDE: 27.33 mmol/L
  CHLORIDE: 102 MEQ/L
  CHOLESTEROL: 77 mg/dL
  CREATINE PHOSPHOKINASE: 1455.33 u/L
  CREATININE: 0.22 mg/dL
  GLUCOSE: 155.33 mg/dL
  LACTATE DEHYDROGENASE: 798.33 u/L
  LIPASE: 10.33 u/L
  PHOSPHORUS: 11.03 mg/dL
  POTASSIUM: 5.31 MEQ/L
  SODIUM: 143.1 MEQ/L
  TOTAL BILIRUBIN: 0.17 mg/dL
  TOTAL PROTEIN: 6.13 G/DL
  URIC ACID: 1.37 mg/dL
[2]
  ABSOLUTE BASOPHIL: 0 CELLS/uL
  ABSOLUTE EOSINOPHIL: 0 CELLS/uL
  ABSOLUTE LYMPHOCYTE: 13952.33 CELLS/uL
  ABSOLUTE MONOCYTE: 166 CELLS/uL
  ABSOLUTE SEGMENTED NEUTROPHIL: 748.33 CELLS/uL
  BASOPHIL: 0%
  EOSINOPHIL: 0%
  ERYTHROCYTE COUNT: 5.81 x10E6/uL
  HEMATOCRIT: 35.17%
  HEMOGLOBIN: 13.97 G/DL
  LEUKOCYTE COUNT: 14.87 x10E3/uL
  LYMPHOCYTE: 93.67%
  MEAN CORPUSCULAR HEMOGLOBIN: 24.13 pg
  MEAN CORPUSCULAR HEMOGLOBIN CONCENTRATION: 39.8 G/DL
  MEAN CORPUSCULAR VOLUME: 60.7 fL
  MONOCYTE: 1%
  NEUTROPHIL: 5.33%
  NUCLEATED RED BLOOD CELLS: 0 /100WBC
  PLATELET COUNT: 1121.67 x10E3/uL
  ALANINE AMINOTRANSFERASE: 41.67 u/L
  ALBUMIN: 4.4 G/DL
  ALKALINE PHOSPHATASE: 262.67 u/L
  ASPARTATE AMINOTRANSFERASE: 85.33 u/L
  BLOOD UREA NITROGEN: 15.67 mg/dL
  CARBON DIOXIDE: 26 mmol/L
  CHLORIDE: 99.67 MEQ/L
  CHOLESTEROL: 81.33 mg/dL
  CREATINE PHOSPHOKINASE: 562.67 u/L
  CREATININE: 0.16 mg/dL
  GLUCOSE: 154.33 mg/dL
  LACTATE DEHYDROGENASE: 357.33 u/L
  LIPASE: 10.33 u/L
  PHOSPHORUS: 11.93 mg/dL
  POTASSIUM: 6.38 MEQ/L
  SODIUM: 140.17 MEQ/L
  TOTAL BILIRUBIN: 0.2 mg/dL
  TOTAL PROTEIN: 6.13 G/DL
  URIC ACID: 1.6 mg/dL
[3]
  ABSOLUTE BASOPHIL: 0 CELLS/uL
  ABSOLUTE EOSINOPHIL: 0 CELLS/uL
  ABSOLUTE LYMPHOCYTE: 13429.67 CELLS/uL
  ABSOLUTE MONOCYTE: 267.67 CELLS/uL
  ABSOLUTE SEGMENTED NEUTROPHIL: 1069.33 CELLS/uL
  BASOPHIL: 0%
  EOSINOPHIL: 0%
  ERYTHROCYTE COUNT: 5.63 x10E6/uL
  HEMATOCRIT: 35%
  HEMOGLOBIN: 13.77 G/DL
  LEUKOCYTE COUNT: 14.77 x10E3/uL
  LYMPHOCYTE: 90.67%
  MEAN CORPUSCULAR HEMOGLOBIN: 24.5 pg
  MEAN CORPUSCULAR HEMOGLOBIN CONCENTRATION: 39.37 G/DL
  MEAN CORPUSCULAR VOLUME: 62.17 fL
  MONOCYTE: 1.67%
  NEUTROPHIL: 7.67%
  NUCLEATED RED BLOOD CELLS: 0 /100WBC
  PLATELET COUNT: 1163.67 x10E3/uL
  ALANINE AMINOTRANSFERASE: 41 u/L
  ALBUMIN: 4.2 G/DL
  ALKALINE PHOSPHATASE: 279.33 u/L
  ASPARTATE AMINOTRANSFERASE: 79.33 u/L
  BLOOD UREA NITROGEN: 19.33 mg/dL
  CARBON DIOXIDE: 29 mmol/L
  CHLORIDE: 99.67 MEQ/L
  CHOLESTEROL: 62.33 mg/dL
  CREATINE PHOSPHOKINASE: 327.33 u/L
  CREATININE: 0.23 mg/dL
  GLUCOSE: 148.67 mg/dL
  LACTATE DEHYDROGENASE: 429.67 u/L
  LIPASE: 10 u/L
  PHOSPHORUS: 12.3 mg/dL
  POTASSIUM: 6.67 MEQ/L
  SODIUM: 140.87 MEQ/L
  TOTAL BILIRUBIN: 0.23 mg/dL
  TOTAL PROTEIN: 6.2 G/DL
  URIC ACID: 1.7 mg/dL
